According to patent US10881110B2, “Herbicidal compositions comprising isoxazolo[5,4-b]pyridines” (BASF SE, priority 2014, dated 2021):

What was measured:
Assay in all cases: greenhouse post-emergence herbicidal test
ECHCG = format: in vivo, Echinochloa crus-galli; set-up: key to herbicidal activity against ECHCG found / herbicidal activity against ECHCH found: scale 0 to 100; details: post emergence
Description: (§1) The culture containers used were plastic pots containing medium loamy sand with approximately 4.6% of humus and 69.9% sand as substrate. The seeds of the test plants were sown separately for each species.
(§2) For the post-emergence treatment, the test plants were grown to a plant height of from 1 to 15 cm, depending on the plant habit, and only then treated with the active compounds which had been suspended or emulsified in water. To this end, the test plants were either sown directly, and grown in the same containers, or they were first grown separately as seedlings and transplanted into the test containers a few days prior to treatment.
(§3) Depending on the species, the plants were kept at 10-25° C. and 20-35° C., respectively.
(§4) The test period extended over 1 to 3 weeks. During this time, the plants were tended and their response to the individual treatments was evaluated 20 days after treatment except mentioned otherwise.
(§5) Evaluation was carried out using a scale from 0 to 100. 100 means no emergence of the plants, or complete destruction of at least the above-ground parts, and 0 means no damage or normal course of growth.
(§6) The respective stated components A and B, and, if appropriate, C, were formulated as a 10% by weight strength emulsion concentrate and, with addition of the amount of solvent system, introduced into the spray liquor used for applying the active compound. In the examples, the solvent used was water.
(§7) In the examples below, using the method of S. R. Colby (1967) “Calculating synergistic and antagonistic responses of herbicide combinations”, Weeds 15, p. 22 ff., the value E, which is expected if the activity of the individual active compounds is only additive, was calculated. E=X+Y−(X·Y/100)

GERDI = format: in vivo, Geranium dissectum; set-up: key to herbicidal activity against GERDI found: rating on a scale from 0 to 100; details: post emergence
How it was run: (§8)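 Post-emergence greenhouse test: plants in loamy sand, sprayed at 1–15 cm height with aqueous spray liquor from 10% emulsion concentrates, kept at 10-25 °C or 20-35 °C by species. Damage scored 0–100 (100 = complete destruction), usually 20 days after treatment. Expected additive effect E from Colby: E=X+Y−(X·Y/100).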

IPOHE = format: in vivo, Ipomoea hederacea; set-up: key to herbicidal activity against IPOHE found: rating on a scale from 0 to 100; details: post emergence
Description: as §1, §2, §3, §4, §5, §6, §7

PAPRH = format: in vivo, Papaver rhoeas; set-up: key: rating on a scale from 0 to 100
Description: as §1, §2, §3, §4, §5, §6, §7

POLCO = format: in vivo, Polygonum convolvulus; set-up: key to herbicidal activity against POLCO found: rating on a scale from 0 to 100
How it was run: (§9)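 Herbicidal activity scored on a 0 (no damage) to 100 (plants destroyed) scale, usually 20 days after water-based spraying of 1–15 cm plants grown in loamy sand at 10-25 °C or 20-35 °C depending on species. Components were applied from 10% emulsion concentrates; Colby's E=X+Y−(X·Y/100) gives the additive expectation.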

ALOMY = format: in vivo, Alopecurus myosuroides; set-up: key to herbicidal activity against ALOMY found: rating on a scale from 0 to 100; details: for herbicidal activity against ALOMY found: B.95 1 g/ha a.i.
How it was run: as §8

APESV = format: in vivo, Apera spica-venti; set-up: key to herbicidal activity against APESV found: rating on a scale from 0 to 100; details: for herbicidal activity against APESV found: B.95 1 g/ha a.i.
How it was run: as §8

ERICA = format: in vivo, Conyza canadensis; set-up: key to herbicidal activity against ERICA found: rating on a scale from 0 to 100; details: post emergence
How it was run: as §8

KCHSC = format: in vivo, Kochia scoparia; details: Bassia scoparia, post-emergence, 480 h, read-out: herbicidal activity against KCHSC found
Description: as §1, §2, §3, §4, §5, §6, §7

MATCH = format: in vivo, Matricaria recutita; set-up: key to herbicidal activity against MATCH found: rating on a scale from 0 to 100
How it was run: as §8

VIOAR = format: in vivo, Viola arvensis; details: Viola arvensis, post-emergence, read-out: herbicidal activity against VIOAR found
How it was run: as §9

GALAP = format: in vivo, Galium aparine; set-up: key to herbicidal activity against GALAP found: rating on a scale from 0 to 100; details: post emergence
How it was run: as §9

ABUTH = format: in vivo, Abutilon theophrast; details: Abutilon theophrasti, post-emergence, 480 h, read-out: herbicidal activity against ABUTH found
How it was run: as §8

STEME = format: in vivo, Stellaria media; set-up: key: scale 0 to 100
Description: as §1, §2, §3, §4, §5, §6, §7

[1] = application rate a.i.: I.1 31.25 g/ha, B.40 (imazethapyr) 7.5 g/ha, alone or as mixture (composition 1.40)
[2] = application rate a.i.: I.1 62.5 g/ha, B.40 (imazethapyr) 7.5 g/ha, alone or as mixture (composition 1.40)
[3] = single active, 50 g/ha a.i., post emergence
[4] = I.1 15.62 g/ha, B.95 1 g/ha a.i.
[5] = I.1 62.5 g/ha, B.95 2 g/ha a.i.
[6] = I.1 31.25 g/ha, B.95 1 g/ha a.i.
[7] = I.1 31.25 g/ha, B.95 2 g/ha a.i.
[8] = I.1 62.5 g/ha, B.95 1 g/ha a.i.
[9] = Matricaria chamomilla, post-emergence, 480 h, read-out: herbicidal activity against MATCH found
[10] = a.i. g/ha: I.1 62.5, B.191 225, 20 days after treatment

CCc1cnc(C2=NC(C)(C(C)C)C(=O)N2)c(C(=O)O)c1 (stereo not drawn) [B.40, imazethapyr]
herbicidal activity against ECHCG found (ECHCG; [1]): 85
herbicidal activity against GERDI found (GERDI; [1]): 95
herbicidal activity against GERDI found (GERDI; [2]): 90
herbicidal activity against IPOHE found (IPOHE; [2]): 80
herbicidal activity against PAPRH found (PAPRH; [2]): 45
herbicidal activity against POLCO found (POLCO; post emergence, application rate a.i.: I.1 31.25 g/ha, B.40 (imazethapyr) 7.5 g/ha, alone or as mixture (composition 1.40)): 80

CC(C)N(C(=O)COc1nnc(C(F)(F)F)s1)c1ccc(F)cc1 [B.130, flufenacet]
pest or weed control at 50 g/ha (ALOMY; Alopecurus myosuroides, post-emergence, 480 h, single active, 50 g/ha a.i., post emergence, read-out: herbicidal activity against ALOMY found): 40%
pest or weed control at 100 g/ha (ALOMY; Alopecurus myosuroides, post-emergence, 480 h, single active, 100 g/ha a.i., post emergence, read-out: herbicidal activity against ALOMY found): 65%
pest or weed control at 50 g/ha (APESV; Apera spica-venti, post-emergence, 480 h, single active, 50 g/ha a.i., post emergence, read-out: herbicidal activity against APESV found): 85%
pest or weed control at 100 g/ha (ECHCG; Echinochloa crus-galli, post-emergence, 480 h, single active, 100 g/ha a.i., read-out: herbicidal activity against ECHCG found): 65%
pest or weed control at 50 g/ha (ERICA; Erigeron canadensis, post-emergence, 480 h, single active, 50 g/ha a.i., read-out: herbicidal activity against ERICA found): 0%
pest or weed control at 50 g/ha (GERDI; Geranium dissectum, post-emergence, 480 h, single active, 50 g/ha a.i., read-out: herbicidal activity against GERDI found): 10%
pest or weed control at 100 g/ha (GERDI; Geranium dissectum, post-emergence, 480 h, single active, 100 g/ha a.i., read-out: herbicidal activity against GERDI found): 10%
pest or weed control at 50 g/ha (IPOHE; Ipomoea hederacea, post-emergence, 480 h, single active, 50 g/ha a.i., read-out: herbicidal activity against IPOHE found): 60%
pest or weed control at 50 g/ha (KCHSC; [3]): 0%
pest or weed control at 50 g/ha (MATCH; Matricaria chamomilla, post-emergence, 480 h, single active, 50 g/ha a.i., post emergence, read-out: herbicidal activity against MATCH found): 0%
pest or weed control at 100 g/ha (MATCH; Matricaria chamomilla, post-emergence, 480 h, single active, 100 g/ha a.i., post emergence, read-out: herbicidal activity against MATCH found): 20%
pest or weed control at 50 g/ha (POLCO; Fallopia convolvulus, post-emergence, 480 h, single active, 50 g/ha a.i., post emergence, read-out: herbicidal activity against POLCO found): 10%
pest or weed control at 100 g/ha (POLCO; Fallopia convolvulus, post-emergence, 480 h, single active, 100 g/ha a.i., post emergence, read-out: herbicidal activity against POLCO found): 10%
pest or weed control at 50 g/ha (VIOAR; [3]): 80%

C#CCN1C(=O)C(F)(F)Oc2cc(F)c(-n3c(=O)n(C)c(=S)n(C)c3=O)cc21 [B.95, trifludimoxazin]
herbicidal activity against ALOMY found (ALOMY; post emergence, I.1 31.25 g/ha): 25
herbicidal activity against ALOMY found (ALOMY; post emergence, I.1 62.5 g/ha): 25
herbicidal activity against APESV found (APESV; post emergence, I.1 15.62 g/ha): 30
herbicidal activity against APESV found (APESV; post emergence, I.1 62.5 g/ha): 30
herbicidal activity against ECHCG found (ECHCG; [4]): 25
herbicidal activity against ECHCG found (ECHCG; [5]): 45
herbicidal activity against ERICA found (ERICA; [4]): 40
herbicidal activity against ERICA found (ERICA; I.1 15.62 g/ha, B.95 2 g/ha a.i.): 45
herbicidal activity against ERICA found (ERICA; [6]): 40
herbicidal activity against ERICA found (ERICA; [7]): 45
herbicidal activity against ERICA found (ERICA; [8]): 40
herbicidal activity against ERICA found (ERICA; [5]): 45
herbicidal activity against GALAP found (GALAP; [6]): 75
herbicidal activity against GALAP found (GALAP; [7]): 75
herbicidal activity against GALAP found (GALAP; [5]): 75
herbicidal activity against GERDI found (GERDI; [8]): 65
herbicidal activity against GERDI found (GERDI; [5]): 65
herbicidal activity against MATCH found (MATCH; post emergence, I.1 15.62 g/ha, B.95 1 g/ha a.i.): 30
herbicidal activity against MATCH found (MATCH; post emergence, I.1 31.25 g/ha, B.95 1 g/ha a.i.): 30
herbicidal activity against MATCH found (MATCH; post emergence, I.1 31.25 g/ha, B.95 2 g/ha a.i.): 65
herbicidal activity against MATCH found (MATCH; post emergence, I.1 62.5 g/ha, B.95 2 g/ha a.i.): 65
herbicidal activity against PAPRH found (PAPRH; [6]): 35
herbicidal activity against PAPRH found (PAPRH; [8]): 35

C/C(=N\NC(=O)Nc1cc(F)cc(F)c1)c1ncccc1C(=O)O [B.174, diflufenzopyr]
pest or weed control at 20 g/ha (ABUTH): 85%
pest or weed control at 20 g/ha (ALOMY; Alopecurus myosuroides, post-emergence, 480 h, read-out: herbicidal activity against ALOMY found): 0%
pest or weed control at 20 g/ha (APESV; Apera spica-venti, post-emergence, 480 h, read-out: herbicidal activity against APESV found): 0%
pest or weed control at 20 g/ha (KCHSC): 65%
pest or weed control at 20 g/ha (MATCH; [9]): 70%
pest or weed control at 40 g/ha (MATCH; [9]): 70%
pest or weed control at 20 g/ha (POLCO; Fallopia convolvulus, post-emergence, 480 h, read-out: herbicidal activity against POLCO found): 30%
herbicidal activity against STEME found (STEME; B.174 alone 40 g/ha a.i.): 50
pest or weed control at 40 g/ha (VIOAR): 65%

Cc1cnc2c(C(=O)O)c(Cl)ccc2c1 [B.169, quinmerac]
pest or weed control at 62.5 g/ha (ALOMY; Alopecurus myosuroides, post-emergence, 480 h, post emergence, B.169 62.5 g/ha a.i., read-out: herbicidal activity against ALOMY found): 0%
pest or weed control at 62.5 g/ha (APESV; Apera spica-venti, post-emergence, 480 h, post emergence, B.169 62.5 g/ha a.i., read-out: herbicidal activity against APESV found): 0%
pest or weed control at 62.5 g/ha (ECHCG; Echinochloa crus-galli, post-emergence, 480 h, B.169 62.5 g/ha a.i., read-out: herbicidal activity against ECHCG found): 0%
pest or weed control at 62.5 g/ha (ERICA; Erigeron canadensis, post-emergence, 480 h, B.169 62.5 g/ha a.i., read-out: herbicidal activity against ERICA found): 65%
pest or weed control at 125 g/ha (ERICA; Erigeron canadensis, post-emergence, 480 h, B.169 125 g/ha a.i., read-out: herbicidal activity against ERICA found): 75%
pest or weed control at 62.5 g/ha (KCHSC; post emergence, B.169 62.5 g/ha a.i.): 10%
pest or weed control at 125 g/ha (KCHSC; post emergence, B.169 125 g/ha a.i.): 25%

CCCCCCCCSC(=O)Oc1cc(Cl)nnc1-c1ccccc1 [B.191, pyridate]
herbicidal activity against ERICA found (ERICA; [10]): 70%
herbicidal activity against GALAP found (GALAP; [10]): 90%
herbicidal activity against MATCH found (MATCH; post emergence, a.i. g/ha: I.1 62.5, B.191 225, 20 days after treatment): 20%
herbicidal activity against STEME found (STEME; [10]): 0%
